# Experimental data as given in US20090247495A1, “CU[…] AND USES THEREOF” (priority 2007, published 2009).
# “Also recorded” adds a separate entry of the source.
# How the values were obtained:
# Panc 10.05 = assay: MTT cell cytotoxicity assay, Panc 10.05; format: cell-based; settings: Homo sapiens, Panc1005, 48 hours
# Protocol: Three human pancreatic cancer cell lines (Panc-1, Panc 02.13, Panc 10.05) were purchased from American Type Culture Collection (ATCC, Manassas, Va., USA). Panc 02.13 and Panc 10.05 were grown in RPMI 1640 medium supplemented with 15% FBS, 4.5 g/L glucose, 10 mM HEPES, and 1.0 mM sodium pyruvate and 10 Units/ml human insulin; while PANC-1 was grown in Dulbecco's modified Eagle's medium supplemented with 10% FBS. They were maintained in a humidified 5% CO2 atmosphere at 37° C. and the culture medium was changed once in 2 days.
# The cytotoxic effect of CuB on these three cancer cell lines were determined using MTT (3-[4,5-dimethylthiazol-2-yl]-2,5-diphenyl tetrazolium bromide) labeled cell cytotoxicity assay. A total of 1×10^4 cells were seeded into a 96-well plate for 24 hours prior to cucurbitacin B (CuB) treatment. They were then treated with different dosages of CuB for 48 hours. After the treatment, 20 μl of MTT (5 mg/ml) was added to each well and incubated for 4 hrs. Then the medium was discarded and 100 μl of dimethyl sulfoxide was added. The absorbance at 570 nm was then measured by FLUOstar OPTIMA equipment (BMG, LABTECH GmbH, Germany). The percentage of inhibition against different dosages of CuB were plotted using the Prism software and the 50% inhibition concentration (IC50) were obtained. […]
# PARP = assay: Western blot of PARP cleavage in HL60 cells; format: cell-based, human
# Protocol: Control cells, as well as cells treated with cucurbitacin B or cucurbitacin D, were harvested and collected by centrifugation. Whole cell extracts were then prepared by lysing the cells using 4% sodium dodecyl sulfate (SDS) gel sample buffer. Cell extracts were boiled for 10 min and chilled on ice, subjected to 12% SDS-polyacrylamide gel electrophoresis, and transferred to a PVDF membrane. Each membrane was cut into to two pieces with one piece incubated at 4° C. overnight with antibodies against cell cycle signaling proteins, such as ERK, phosphorlated-ERK, p38, phosphorlated-p38, Cyclin E, Retinoblastoma, phosphalated-Retinoblastoma and c-myc, and apoptotic protein (PARP). β-actin was used as a control for protein loading. All antibodies were obtained from Cell signaling Technologies (USA). Then membranes were incubated at 37° C. for 1 h with secondary antibody conjugated with peroxidase, and the signal was detected using chemiluminescence detection reagent. The relative protein level was calculated as the ratio of the optical density of the protein of interest to that of β-actin.
# [1] = tested on: colon cancer cell line (HT29); assay: MTT cell cytotoxicity assay, HT29; format: cell-based, human; settings: Homo sapiens, HT-29; 48 hours; read-out: IC50
# Protocol: Three human cancer cell lines (HepG2(liver), HT29(colon) and MCF-7(breast)) were purchased from American Type Culture Collection (ATCC, Manassas, Va., USA). The cells were cultured in RPMI 1640 medium supplemented with 5% (v/v) fetal bovine serum (FBS) and 100 units/ml penicillin and streptomycin (Invitrogen Life Technologies) in a humidified 5% CO2 atmosphere at 37° C.
# The cytotoxic effect of CuB and CuD on these three cancer cell lines were determined using MTT (3-[4,5-dimethylthiazol-2-yl]-2,5-diphenyl tetrazolium bromide) labeled cell cytotoxicity assay. A total of 1×10^4 cells were seeded into a 96-well plate for 24 hours prior to cucurbitacin B (CuB) or cucurbitacin D (CuD) treatment. They were then treated with different dosages of CuB/CuD for 48 hours. After the treatment, 20 μl of MTT (5 mg/ml) was added to each well and incubated for 4 hrs. Then the medium was discarded and 100 μl of dimethyl sulfoxide was added. The absorbance at 570 nm was then measured by using FLUOstar OPTIMA equipment (BMG, LABTECH GmbH, Germany). The percentage of inhibition against different dosages of CuB/CuD were plotted using the Prism software and the 50% inhibition concentration (IC50) were obtained.
# Raf/Mek/Erk pathway = assay: Western blot of phosphorylated c-Raf, Mek1/2, Erk1/2 and Elk-1 in K562 cells; format: cell-based, human; settings: 50 μM
# Protocol: K562 leukemia cells were serum starved for 18 hours prior to cucurbitacin B treatment. The cells were incubated at a 75-mm culture flask filled with 10 ml growth medium (RPMI with 10% FBS and 1% PS) at the cell density of 1×10^5 cells/ml in the presence or absence of cucurbitacin B for various time intervals. The drug treatment were terminated by centrifugation at 1500 rpm for 5 minutes and the cells were rinsed twice with phosphate-buffered saline and lysed at 4° C. in a lysis buffer containing 50 mM Tris-HCl, pH7.5, […], 5 mM EDTA, 40 mM NaP2O7, 1% Triton X-100, 1 mM dithiothreitol, 200 μM Na3VO4, 100 μM phenylmethysufonyl fluoride, 2 μg/ml leupeptin, 4 μg/ml aprotinin and 0.7 μg/ml pepstatin. The insoluble protein lysate were removed by centrifugation for 10 minutes at 13000 rpm. Fifteen micrograms of protein lysate was resolved using SDS-polyacryamide gel electrophoresis (PAGE) (usually 8%-12% polyacrylamide gel) and then subjected to western blot anaylsis. Western blots were performed with antibodies specific for phosphorylated and total Stat3, c-Raf, Mek, and Erk. […]
# In order to further investigate if cucurbitacin B block the Stat3 activation is truly through Erk pathway in K562 cells, the ability of cucurbitacin B to inhibit the Ras/Raf/Mek/Erk pathway was determined by measuring Ras-GTP, phosphorylation of c-Raf, Mek1/2, Erk1/2 and Elk-1 in K562 cells. […]
# [2] = tested on: Human pancreatic cancer cell line Panc-1; assay: Hollow fiber assay, Panc-1; format: in vivo, nude mice; settings: up to 8 days
# Protocol: The hollow fiber assay (HFA) was developed by the NCI as a high-throughput, preliminary in vivo screening assay for the evaluation of anti-cancer agents.
# Human pancreatic cancer cell line Panc-1 were in vitro cultured inside hollow fibers for overnight, followed by in vivo implantation at s.c. sites of the nude mice. Mice were treated with vehicle control (0.5% CMC), positive control (100 mg/kg Gemcitabine) and 3 doses of cucurbitacin B (0.1 mg/kg, 0.5 mg/kg and 1.0 mg/kg) for up to 8 days. Then the fibers were excised and analyzed for cell viability by MTT assay. An additional group, the growth control group was also included in the assay. Mice in this group were sacrificed on the first day of treatment, and fibers were excised and analyzed for cell viability by MTT assay. The efficacies of cucurbitacin B against Panc-1 were expressed as the inhibited (or not) net growth percentage of the cancer cells when compared to the vehicle control group.
structure (smiles),measurement,setting,value
CC(=O)OC(C)(C)/C=C/C(=O)[C@](C)(O)C1[C@H](O)C[C@@]2(C)C3CC=C4C(C[C@H](O)C(=O)C4(C)C)[C@]3(C)C(=O)C[C@]12C (stereo partly shown) [cucurbitacin B],GI50,Panc 10.05,5.81 µM
same,apoptosis marker PARP,PARP,cleavage of PARP
same,IC50,[1],0.31 µg/mL
same,"activation (phosphorylation) of c-Raf, Mek1/2, Erk1/2 and Elk-1",Raf/Mek/Erk pathway; 5 minutes treatment,significantly inhibited; also recorded: significant disruption
same,inhibition of the Raf/Mek/Erk pathway,Raf/Mek/Erk pathway; 4 hours,Complete inhibition
same,net-growth of Panc-1 compared to the vehicle control group,[2]; 0.1 mg/kg and 0.5 mg/kg,about 40%
same,net cell growth of Panc-1 in hollow fibers,"[2]; 0.1 mg/kg, 0.5 mg/kg and 1.0 mg/kg",potently inhibited
